Reference: patent US20260115214A1, “APPLICATION OF INHIBITORS OF GLYCOLYTIC PATHWAY IN PREPARATION OF DRUGS FOR PREVENTING AND TREATING PORCINE REPRODUCTIVE AND RESPIRATORY SYNDROME VIRUS (PRRSV) INFECTION” (NANJING AGRICULTURAL UNIVERSITY, priority 2020, published 2026)

Key:
PRRSV = PRRSV replication in infected Marc-145 cells treated with glycolysis inhibitors (Western blotting, TCID50, RT-PCR); assay type: cell-based, porcine reproductive and respiratory syndrome virus; settings: for virus titer (TCID50) in cell culture medium / PRRSV ORF7 mRNA level in the cells (RT-PCR): 36 h, 2-DG 0-15 μM; for virus titer (TCID50) in cell culture medium / PRRSV ORF7 mRNA level in the cells (RT-PCR) / PRRSV N protein expression level (Western blotting): SO 0, 25, 50 mM; for PRRSV ORF7 mRNA level in the cells (RT-PCR) / PRRSV N protein expression level (Western blotting): Gal 10, 50, 100 μM; for PRRSV N protein expression level (Western blotting): 36 h after infection
Experimental: Highly pathogenic PRRSV strains BB0907 and Marc-145 cells are maintained in the laboratory and are conventional strains and cells disclosed in the prior art.
Marc-145 cells were cultured in a 96-well plate. When the cell confluence reached 70%, a nutrient solution was pipetted, and the cell surface was washed 3 times with PBS. Ten-fold serial dilutions of PRRSV were added to the cells and incubated at 37° C. for 1 h. A medium was replaced with fresh 2% FBS-DMEM. Virus titers were determined 5 days post inoculation (dpi) by endpoint dilution assay. 50% tissue culture infectious dose (TCID50) was calculated by a Reed-Muench method.
Cellular RNA was extracted following operating instructions of an OMEGA RNA virus extraction kit. After reverse transcription into cDNA, […].
By a 2-ΔΔCt method, the relative content of mRNA in each gene in the samples was calculated by a CT value.
(§1) To explore the effect of glycolysis in cells on PRRSV replication, an inhibitor of glycolytic pathway, 2-DG, was used to inhibit glycolysis in cells. […] After the Marc-145 cells were infected with PRRSV (0.01 MOI), the Marc-145 cells were treated with 0 μM, 2.5 μM, 5 μM, 10 μM and 15 μM of 2-DG respectively. After 36 hours, the inhibition efficiency of the 2-DG on PRRSV on the Marc-145 cells was detected by Western blotting.
To further verify the effect of glycolysis on PRRSV, PRRSV-infected Marc-145 cells were treated with a key enzyme in the last step of glycolysis, that is, an inhibitor of lactate dehydrogenase, sodium oxamate (SO). A control group was set up to detect whether there was a difference in the level of virus replication. […] After the Marc-145 cells were infected with PRRSV (0.01 MOI), the Marc-145 cells were treated with 0 mM, 25 mM and 50 mM of SO. 36 h after infection, the PRRSV N protein expression level, virus titer and PRRSV ORF7 mRNA level were detected by Western blotting, TCID50 and RT-PCR respectively.
PRRSV-infected Marc-145 cells were treated with an inhibitor of lactate dehydrogenase (Galloflavin, Gal), and a control group was set up to detect differences in viral replication levels. […] After Marc-145 cells were infected with PRRSV (0.01 MOI), the Marc-145 cells were treated with 10 μM, 50 μM and 100 μM of Gal. […] In addition, A PRRSV ORF7 mRNA level and the virus titer were detected by TCID50 and RT-PCR.

PRRSV BB0907 strain = assay: Treatment of PRRSV-infected piglets by oral administration; assay type: in vivo; settings: for microscopic lung lesion scores: day 14, compared with challenge control group, P<0.01; for gross lung lesion scores: day 14, compared with positive control group, sodium oxamate P<0.01, Galloflavin P<0.001; for PRRSV viral load in the lungs / histopathological changes of lungs / gross lung lesions (observation) / clinical symptoms (observation) / clinical symptoms compared with the positive control group / weight growth rate / virus content in the serum (PRRSV genome copy number, qRT-PCR): oral daily, sodium oxamate 7 mg or Galloflavin 10 μg; for PRRSV viral load in the lungs: 14 dpi, P<0.0001; for histopathological changes of lungs: day 14; for gross lung lesions (observation): day 14, compared with the positive control group; for clinical symptoms (observation): days 0-14; for clinical symptoms compared with the positive control group: days 0-14, P<0.001; for weight growth rate: days 0-14, P>0.05 vs negative control; for virus content in the serum (PRRSV genome copy number, qRT-PCR): serum at 1, 4, 7, 10, 14 dpi
Marc-145 cells = assay type: cell-based; settings: monkey, 48 h
Experimental: Marc-145 cells were cultured in 10% FBS-DMEM containing different concentrations of sodium oxamate (1-250 mM), Galloflavin (0-2.5 mM) and 2-deoxy-D-glucose (0-20 μM), and incubated at 37° C. for 48 h. Cell viability was detected with an enhanced CCK8 kit. DMSO was used as a negative control.
as §1
To further verify the effect of glycolysis on PRRSV, PRRSV-infected Marc-145 cells were treated with a key enzyme in the last step of glycolysis, that is, an inhibitor of lactate dehydrogenase, sodium oxamate (SO). […] 36 h after infection, the PRRSV N protein expression level, virus titer and PRRSV ORF7 mRNA level were detected by Western blotting, TCID50 and RT-PCR respectively.
PRRSV-infected Marc-145 cells were treated with an inhibitor of lactate dehydrogenase (Galloflavin, Gal), and a control group was set up to detect differences in viral replication levels. […] In addition, A PRRSV ORF7 mRNA level and the virus titer were detected by TCID50 and RT-PCR.

| Structure (SMILES) | level of PRRSV replication (figure legend) (PRRSV) | virus titer (TCID50) in cell culture medium (PRRSV; PRRSV 0.01 MOI) | PRRSV ORF7 mRNA level in the cells (RT-PCR) (PRRSV; PRRSV 0.01 MOI) | inhibition at 5 µM (PRRSV; Porcine reproductive and respiratory syndrome virus, MARC145, concentration of 5 μM, PRRSV 0.01 MOI, after 36 hours, read-out: inhibition efficiency against PRRSV (Western blotting)) [%] | microscopic lung lesion scores (PRRSV BB0907 strain) | gross lung lesion scores (PRRSV BB0907 strain) | PRRSV viral load in the lungs (PRRSV BB0907 strain) | histopathological changes of lungs (PRRSV BB0907 strain) | gross lung lesions (observation) (PRRSV BB0907 strain) | clinical symptoms (observation) (PRRSV BB0907 strain) | clinical symptoms compared with the positive control group (PRRSV BB0907 strain) | weight growth rate (PRRSV BB0907 strain) | virus content in the serum (PRRSV genome copy number, qRT-PCR) (PRRSV BB0907 strain) | PRRSV N protein expression level (Western blotting) (PRRSV; PRRSV 0.01 MOI) | concentration at which the substance starts to be toxic to the cells (CCK8) (Marc-145 cells) [µM] |
| --- | --- | --- | --- | --- | --- | --- | --- | --- | --- | --- | --- | --- | --- | --- | --- |
| O=CC[C@@H](O)[C@H](O)[C@H](O)CO [2-DG, 2-deoxy-D-glucose] | reduces the level of PRRSV replication | decreased in a dose-dependent manner | decreased in a dose-dependent manner | ~50 | – | – | – | – | – | – | – | – | – | – | – |
| O=c1oc2c(cc1O)oc(=O)c1cc(O)c(O)c(O)c12 [Galloflavin] | reduces the level of PRRSV replication | – | decrease the mRNA level of PRRSV in a dose-dependent manner | – | significantly lower than those of the challenge control group | more significantly lower | significantly lower than that in the positive control group | significantly alleviated, similar to those in the negative control group | significantly minor lung lesions | no obvious clinical symptoms | significantly relieved clinical symptoms | approximate to that of the negative control group | significantly lower than that in the positive control group | decrease PRRSV replication in the cells in a dose-dependent manner | – |
| NC(=O)C(=O)[O-].[Na+] [sodium oxamate] | reduces the level of PRRSV replication | reduce PRRSV replication in the cells in a dose-dependent manner | reduce PRRSV replication in the cells in a dose-dependent manner | – | significantly lower than those of the challenge control group | significantly lower | significantly lower than that in the positive control group | mild thickened alveolar septa and inflammatory cell infiltration | significantly minor lung lesions | no obvious clinical symptoms | significantly relieved clinical symptoms | approximate to that of the negative control group | significantly lower than that in the positive control group | reduce PRRSV replication in the cells in a dose-dependent manner | 100000 |
